Measurements as given in patent publication US20250289787A1, “HERBICIDAL 2-OXO-NICOTINIC ACID DERIVATIVES” (SYNGENTA CROP PROTECTION AG, priority 2022, published 2025).

Columns and labels:
Format in all cases: in vivo
Parameters in all cases: key: 5=81-100%; 4=61-80%; 3=41-60%; 2=21-40%; 1=1-20%; 0=no damage to the plant; -=not tested
[1] = test system: Amaranthus palmeri (AMAPA); test: Pre-emergence test, herbicidal damage; conditions: 1000 g/ha unless otherwise stated, evaluated after 13 days, five-point scale
[2] = test system: Amaranthus retoflexus (AMARE); test: Pre-emergence test, herbicidal damage; conditions: 1000 g/ha unless otherwise stated, evaluated after 13 days, five-point scale
[3] = test system: Echinochloa crus-galli (ECHCG); test: Pre-emergence test, herbicidal damage; conditions: 1000 g/ha unless otherwise stated, evaluated after 13 days, five-point scale
Zea mays (ZEAMX) [4] = test: Pre-emergence test, herbicidal damage; conditions: 1000 g/ha unless otherwise stated, evaluated after 13 days, five-point scale
[5] = test system: Ipomoea hederacea (IPOHE); test: Pre-emergence test, herbicidal damage; conditions: 1000 g/ha unless otherwise stated, evaluated after 13 days, five-point scale
Setaria faberi (SETFA) [6] = test: Pre-emergence test, herbicidal damage; conditions: 1000 g/ha unless otherwise stated, evaluated after 13 days, five-point scale
[7] = test system: Amaranthus palmeri (AMAPA); test: Post-emergence test, herbicidal damage; conditions: sprayed after 8 days cultivation, 1000 g/ha unless otherwise stated, evaluated after 13 days, five-point scale
Method: (§1) Seeds of a variety of test species are sown in standard soil in pots Amaranthus palmeri (AMAPA), (Amaranthus retoflexus (AMARE), Echinochloa crus-galli (ECHCG), Zea mays (ZEAMX), Ipomoea 5 hederacea (IPOHE), and Setaria faberi (SETFA). After 8 days cultivation under controlled conditions in a glasshouse (at 24° C./16° C., day/night; 14 hours light; 65% humidity), the plants are sprayed with an aqueous spray solution derived from the formulation of the technical active ingredient in acetone/water (50:50) solution containing 0.5% Tween 20 (polyoxyethelyene sorbitan monolaurate, CAS RN 9005-64-5). Compounds are applied at 1000 g/ha unless otherwise stated. The test plants are then grown in a glasshouse under controlled conditions in a glasshouse (at 24° C./16° C., day/night; 14 hours light; 65% humidity) and watered twice daily. After 13 days the test is evaluated for the percentage damage caused to the plant. The biological activities are shown in the following table on a five-point scale (5=81-100%; 4=61-80%; 3=41-60%; 2=21-40%; 1=1-20%; 0=no damage to the plant; -=not tested).

[8] = test system: Amaranthus retoflexus (AMARE); test: Post-emergence test, herbicidal damage; conditions: sprayed after 8 days cultivation, 1000 g/ha unless otherwise stated, evaluated after 13 days, five-point scale
Method: as §1

[9] = test system: Echinochloa crus-galli (ECHCG); test: Post-emergence test, herbicidal damage; conditions: sprayed after 8 days cultivation, 1000 g/ha unless otherwise stated, evaluated after 13 days, five-point scale
Method: as §1

[10] = test system: Ipomoea hederacea (IPOHE); test: Post-emergence test, herbicidal damage; conditions: sprayed after 8 days cultivation, 1000 g/ha unless otherwise stated, evaluated after 13 days, five-point scale
Method: as §1

Setaria faberi (SETFA) [11] = test: Post-emergence test, herbicidal damage; conditions: sprayed after 8 days cultivation, 1000 g/ha unless otherwise stated, evaluated after 13 days, five-point scale
Method: as §1

Zea mays (ZEAMX) [12] = test: Post-emergence test, herbicidal damage; conditions: sprayed after 8 days cultivation, 1000 g/ha unless otherwise stated, evaluated after 13 days, five-point scale
Method: as §1

Compound	percentage damage caused to the plant, AMAPA [1]	percentage damage caused to the plant, AMARE [2]	percentage damage caused to the plant, ECHCG [3]	percentage damage caused to the plant, ZEAMX (Zea mays (ZEAMX) [4])	percentage damage caused to the plant, IPOHE [5]	percentage damage caused to the plant, SEFTA (Setaria faberi (SETFA) [6])	percentage damage caused to the plant, AMAPA [7]	percentage damage caused to the plant, AMARE [8]	percentage damage caused to the plant, ECHCG [9]	percentage damage caused to the plant, IPOHE [10]	percentage damage caused to the plant, SEFTA (Setaria faberi (SETFA) [11])	percentage damage caused to the plant, ZEAMX (Zea mays (ZEAMX) [12])
Cc1cc(-c2ccc(Cl)c(Cl)c2)c(C(=O)O)c(=O)[nH]1 [Compound 7, 4-(3,4-dichlorophenyl)-6-methyl-2-oxo-1H-pyridine-3-carboxylic acid]	0	0	0	0	0	0	0	0	0	0	0	0
C=Cc1c(C)[nH]c(=O)c(C(=O)O)c1-c1ccc(Cl)c(Cl)c1 [Compound 8, 4-(3,4-dichlorophenyl)-6-methyl-2-oxo-5-vinyl-1H-pyridine-3-carboxylic acid]	1 (1=1-20%)	0	0	0	0	0	1 (1=1-20%)	1 (1=1-20%)	1 (1=1-20%)	1 (1=1-20%)	1 (1=1-20%)	1 (1=1-20%)
Cc1[nH]c(=O)c(C(=O)O)c(-c2ccc(Cl)c(Cl)c2)c1C [Compound 9, 4-(3,4-dichlorophenyl)-5,6-dimethyl-2-oxo-1H-pyridine-3-carboxylic acid]	0	0	0	0	0	0	1 (1=1-20%)	1 (1=1-20%)	0	1 (1=1-20%)	0	0
CCc1c(C)[nH]c(=O)c(C(=O)O)c1-c1ccc(Cl)c(Cl)c1 [Compound 10, 4-(3,4-dichlorophenyl)-5-ethyl-6-methyl-2-oxo-1H-pyridine-3-carboxylic acid]	0	0	0	0	0	0	0	0	0	0	0	0
Cc1[nH]c(=O)c(C(=O)O)c(-c2ccc(Cl)c(Cl)c2)c1C#N [Compound 11, 5-cyano-4-(3,4-dichlorophenyl)-6-methyl-2-oxo-1H-pyridine-3-carboxylic acid]	0	0	0	0	0	0	0	0	0	0	0	0
